This is an account of results in ChEMBL document CHEMBL1201862, “PubChem BioAssay data set” (2004).

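Five compound concentrations were applied to cells in 96-well plates for 48 hours; endpoints were derived by simple linear interpolation of the resulting dose-response curve. Abbreviation: GI50, concentration required for 50% inhibition of growth.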 Activity calls are given as the source filed them. Rule as the data show it: active = GI50 up to about 1.1 µM and inactive = higher.

Among the test systems are UACC-62; SF-295; Hs-578T; CAKI-1; SW-620; ACHN; SR; HCT-15; M14; OVCAR-8; NCI-H522; HCC 2998; SNB-75; K562; A498; SNB-19; BT-549; PC-3; MDA-MB-231.
What all share (assay): NCI tumour cell line growth inhibition, 48 h

Take `CC(C)(C)OC(=O)N1N=CCC1c1ccccc1` (configuration not stated): the GI50 in the test on UACC-62, with SF-295, with Hs-578T, in the test with CAKI-1, with SW-620 and with ACHN was > 100 µM (inactive) in each case. Moreover, the GI50 with SR is > 100 µM (inactive); in the test on HCT-15, greater than 100 µM; in the test with M14 it was > 100 µM (inactive); in the test on OVCAR-8, > 100 µM (inactive); with NCI-H522, > 100 µM (inactive); with HCC 2998, > 100 µM (inactive). In addition, the GI50 in the test with SNB-75, in the test on K562 and in the test with A498 was > 100 µM (inactive) throughout.

Turning to `O=C(CC(=O)C(F)(F)F)c1csc2ccccc12`, the GI50 was 32.2 µM (inactive) in the test with UACC-62; 10.4 µM (inactive) in the test with SF-295; 38.5 µM (inactive) with SW-620; 34.5 µM (inactive) with ACHN; 17.5 µM (inactive) with SR; 29.2 µM in the test with HCT-15. In addition, the GI50 with M14 was 23.6 µM (inactive); in the test on OVCAR-8 it was 18.5 µM (inactive); with SNB-19, 37.2 µM (inactive); with NCI-H522, 23.9 µM (inactive); in the test with HCC 2998 it was 48.9 µM (inactive); in the test with K562, 24.8 µM (inactive).

Regarding `CN(C)c1ccc(C=c2c3ccccc3n3c2cc(-c2ccc(Cl)cc2)[n+]3C)cc1`, the GI50 in the test on BT-549 was 0.201 µM (active); in the test with UACC-62 it was 0.291 µM (active); in the test with SF-295 it was 0.501 µM (active); with CAKI-1, 0.259 µM (active); with SW-620, 0.242 µM (active); in the test with ACHN, 0.514 µM (active). Further, the GI50 in the test with HCT-15 is 1.47 µM; in the test on M14 it was 0.301 µM (active); in the test with OVCAR-8 it was 0.147 µM (active); with SNB-19 it was 0.268 µM (active); in the test with NCI-H522 it was 0.0577 µM (active); in the test with HCC 2998 it was 0.603 µM (active). The GI50 was 0.167 µM (active) in the test with PC-3; 0.307 µM (active) with SNB-75; < 0.0462 µM (active) in the test with K562; 1.51 µM (inactive) in the test with A498; 0.217 µM (active) with MDA-MB-231.

As to `O=C(O)c1cc(/C=C/c2ccc(O)c(O)c2)ccc1O`, the GI50 in the test with UACC-62 was > 100 µM (inactive); in the test on SF-295, > 100 µM (inactive); in the test with Hs-578T, > 100 µM (inactive); with CAKI-1, 32.7 µM (inactive); in the test on SW-620 it was > 10 µM (inactive); in the test with ACHN, > 100 µM (inactive). Also, the GI50 in the test on SR was 38.3 µM (inactive); with HCT-15, greater than 100 µM; in the test with M14, 45.8 µM (inactive); in the test on OVCAR-8 it was > 100 µM (inactive); in the test on SNB-19, > 100 µM (inactive); in the test on NCI-H522, > 100 µM (inactive). Further, the GI50 was > 100 µM (inactive) in the test on HCC 2998; > 100 µM (inactive) in the test with PC-3; > 100 µM (inactive) in the test on SNB-75; 20.3 µM (inactive) in the test with K562; > 100 µM (inactive) with MDA-MB-231.

Consider `CCn1c(=N)sc2nc3ccccc3n2c1=O`, for which the GI50 in the test on UACC-62, with SF-295, in the test with Hs-578T, in the test with CAKI-1, with SW-620 and in the test on ACHN was > 100 µM (inactive) each time. The GI50 in the test with SR was > 100 µM (inactive); in the test with HCT-15, greater than 100 µM; with M14, > 100 µM (inactive); in the test on OVCAR-8, > 100 µM (inactive); in the test with SNB-19, > 100 µM (inactive); in the test on NCI-H522, > 100 µM (inactive). Also, the GI50 was > 100 µM (inactive) in the test with HCC 2998; > 100 µM (inactive) in the test with PC-3; 40 µM (inactive) in the test with SNB-75; > 100 µM (inactive) with K562; > 100 µM (inactive) with A498; > 100 µM (inactive) in the test on MDA-MB-231.

For the compound `C/C(=N\OCC(O)CNCCSCc1ccccc1)c1ccccc1Cl` (configuration not stated), the GI50 was 18.6 µM (inactive) in the test on UACC-62; 18.6 µM (inactive) in the test with SF-295; 27.7 µM (inactive) in the test with Hs-578T; 17.7 µM (inactive) with CAKI-1; 20 µM (inactive) in the test on SW-620; 18.1 µM (inactive) in the test on ACHN. Besides, the GI50 was 31.7 µM (inactive) in the test on SR; 18.2 µM with HCT-15; 21.8 µM (inactive) with M14; 14.6 µM (inactive) with OVCAR-8; 18.5 µM (inactive) with SNB-19; 28.7 µM (inactive) in the test with NCI-H522. Further, the GI50 is 19.4 µM (inactive) in the test on HCC 2998; 18.5 µM (inactive) with PC-3; 21.4 µM (inactive) in the test with SNB-75; 38.4 µM (inactive) in the test with K562; 15.6 µM (inactive) with A498; 18 µM (inactive) in the test on MDA-MB-231.

Turning to `Nc1ncnc2c1nc(Cl)n2C1OC2COP(=O)(O)OC2C1O` (configuration not stated), the GI50 with UACC-62 is 10.4 µM (inactive); in the test with SF-295, > 35.4 µM (inactive); with Hs-578T it was 19.6 µM (inactive); with CAKI-1 it was 6.04 µM (inactive); with SW-620, 3.47 µM (inactive); in the test on ACHN, 4.99 µM (inactive). The GI50 was 3.55 µM (inactive) in the test on SR; 3.76 µM with HCT-15; 6.25 µM (inactive) with M14; 3.9 µM (inactive) with OVCAR-8; > 100 µM (inactive) with SNB-19; 3.63 µM (inactive) in the test with NCI-H522. Also, the GI50 in the test with HCC 2998 is 38.9 µM (inactive); in the test with SNB-75, 11.3 µM (inactive); in the test with K562, 1.01 µM (active); with A498 it was 1.69 µM (inactive).

For the compound `CN(CC(=O)O)c1ncc2c(n1)C=CCC2`, the GI50 in the test with UACC-62, in the test on SF-295, in the test with Hs-578T, in the test on CAKI-1, in the test on SW-620 and in the test on ACHN was > 100 µM (inactive) throughout. The GI50 in the test with SR was > 100 µM (inactive); with HCT-15, greater than 100 µM; in the test on M14 it was > 100 µM (inactive); in the test on OVCAR-8, > 100 µM (inactive); with SNB-19, > 100 µM (inactive); in the test with NCI-H522 it was > 100 µM (inactive). Also, the GI50 with PC-3, with SNB-75, in the test with K562, in the test with A498 and in the test on MDA-MB-231 was > 100 µM (inactive) throughout.

Consider `O=[N+]([O-])c1cc(-c2nnc(C34CC5CC(CC(C5)C3)C4)o2)cc([N+](=O)[O-])c1`, for which the GI50 in the test with UACC-62 was 86.9 µM (inactive); with SF-295, > 100 µM (inactive); in the test with Hs-578T it was 64.7 µM (inactive); with CAKI-1 it was > 100 µM (inactive); in the test with SW-620, 15.4 µM (inactive); in the test on ACHN it was 58.6 µM (inactive). Also, the GI50 is > 100 µM (inactive) with SR; 21.1 µM in the test on HCT-15; 21.5 µM (inactive) in the test with M14; 25.5 µM (inactive) in the test with OVCAR-8; > 100 µM (inactive) in the test on SNB-19; > 100 µM (inactive) in the test on NCI-H522. In addition, the GI50 in the test on HCC 2998 is 70.5 µM (inactive); in the test with PC-3 it was 45.2 µM (inactive); in the test with SNB-75, 74.6 µM (inactive); in the test on K562, 21 µM (inactive); in the test with A498 it was 61.7 µM (inactive); in the test with MDA-MB-231, 39.2 µM (inactive).

As to `C=C(C)CC1=C(C(=S)NCCO[Si](C)(C)C(C)(C)C)C(OCC)(OCC)C1=O`, the GI50 in the test with UACC-62 was 17.7 µM (inactive); with SF-295 it was 17.6 µM (inactive); in the test with Hs-578T it was 24.8 µM (inactive); with CAKI-1, 16.3 µM (inactive); with SW-620, 18.4 µM (inactive); in the test on ACHN, 18 µM (inactive). In addition, the GI50 in the test with HCT-15 was 8.93 µM; in the test on M14, 18.3 µM (inactive); in the test on OVCAR-8 it was 40.6 µM (inactive); with SNB-19 it was 17.7 µM (inactive); in the test on NCI-H522, 13.7 µM (inactive); in the test on PC-3, 14.8 µM (inactive). Besides, the GI50 with SNB-75 was 14.7 µM (inactive); in the test with A498, 21.7 µM (inactive); in the test with MDA-MB-231 it was 26.4 µM (inactive).

Regarding `N=C(N)c1ccc2oc3ccc(C(=N)N)cc3c(=O)c2c1`, the GI50 in the test with BT-549, in the test with UACC-62, in the test on SF-295, in the test on CAKI-1, in the test on SW-620 and in the test on ACHN was > 100 µM (inactive) throughout. Further, the GI50 in the test on HCT-15 was greater than 100 µM; in the test on M14, > 100 µM (inactive); with OVCAR-8 it was > 100 µM (inactive); with SNB-19, > 100 µM (inactive); in the test on NCI-H522, > 100 µM (inactive); with HCC 2998, > 100 µM (inactive). Moreover, the GI50 in the test with PC-3, with SNB-75, in the test on K562, in the test on A498 and in the test with MDA-MB-231 was > 100 µM (inactive) in each case.

Take `CCCCCCCCCCCCCCCCNc1nc(=O)n(C2CC(O)C(COP(=O)(O)OC3CC(n4cc(F)c(=O)[nH]c4=O)OC3CO)O2)cc1F` (configuration not stated): the GI50 with UACC-62 was 0.337 µM (active); in the test with Hs-578T it was 15.6 µM (inactive); with CAKI-1, 0.258 µM (active); with SW-620 it was 32.1 µM (inactive); with ACHN it was 0.0234 µM (active); in the test with SR, < 0.0243 µM (active). In addition, the GI50 in the test on HCT-15 is 3.18 µM; in the test with M14, 0.687 µM (active); with OVCAR-8, 0.296 µM (active); in the test with SNB-19, 0.27 µM (active); in the test on NCI-H522, 8.75 µM (inactive); with HCC 2998 it was < 0.01 µM (active). Further, the GI50 in the test with PC-3 is 6.35 µM (inactive); in the test on SNB-75 it was 4.98 µM (inactive); in the test with K562, 1.41 µM (inactive); in the test with A498, 0.09 µM (active); in the test on MDA-MB-231, 28.4 µM (inactive).
